Results: patent US8961959B2, “Glucosylceramide synthase inhibitors and therapeutic methods using the same” (The Regents of the University of Michigan, priority 2011, dated 2015)
“Also recorded” adds a separate entry of the source. Like-named read-outs stand apart in the source and are kept apart here.

Columns and labels:
[1] = system: WT-MDCKII cells; assay: GCS inhibition (GlcCer production) in whole wild-type MDCKII cells; type: cell-based, canine; conditions: for IC50: Canis lupus familiaris, MDCK-II, 24 h
Description: Parental (WT-)MDCKII cells and MDCKII cells retrovirally transduced with human MDR-1 cDNA were obtained from the Netherlands Cancer Institute. Both cell lines were routinely maintained in medium consisting of Opti-MEM/F 12 (1:1), 5% FBS, 100 U/mL of penicillin, 100 μg/mL streptomycin and […] L-glutamine. MDCKII cells were newly thawed from frozen ampules every two months. Protein levels of MDR1 in MDR1-MDCKII cells were measured monthly, and MDR1-MDCKII cell passages were immediately terminated when a reduction of MDR1 levels was observed by Western blot using anti-human MDR1 monoclonal antibody (Abcam C219).
(§1) Stock solutions of water-insoluble glycosphingolipid inhibitors (100 mM) were prepared by dissolving each inhibitor into 100% ethanol as previously described (3). The inhibitor-ethanol solutions then were diluted 50× into 2 mM delipidated bovine serum albumin-phosphate buffered saline solution to make water-soluble glycosphingolipid inhibitor-bovine serum albumin complexes. The inhibitor-bovine serum album complexes were sterile-filtered and stored at −20° C. Prior to use, portions of the inhibitor-bovine serum albumin complexes were further diluted with Opti-F12 to make treatment solutions. Equal amounts of bovine serum albumin and ethanol were added into the control cultures. WT and MDR1-MDCKII cells (5×10^5) were seeded into 10-cm culture dishes containing 10 ml of Opti-F12 with 5% FBS. After 24 hours, the medium was replaced with fresh serum-free Opti-F12 medium, and cells were exposed to candidate GCS inhibitors at concentrations of 0, 1, 3, 10, 30, 100 and 300 nM for 24 hours.
(§2) Following inhibitor treatment, whole cellular lipids of wild type and MDR1-MDCKII cells were extracted as previously described in detail (10). Briefly, cells were washed with ice-cold phosphate buffered saline, fixed by methanol, and collected with rubber scraper. Chloroform was then added to yield a theoretical ratio of chloroform:methanol:water at 1:2:0.8 (v/v/v) to form a mono-phase. Cell debris and proteins were removed by centrifugation at 2200×g for 30 min. The supernatants were portioned by adding chloroform and 0.9% NaCl. The lower organic phases containing neutral glycosphingolipids lipids were washed with methanol and 0.9% NaCl, and subjected to base- and acid-hydrolysis (10). A portion of purified glycosphingolipids normalized to 100 nmol of total phospholipids was analyzed by high performance thin layer chromatography. The thin layer chromatography separations were processed twice. The plate pretreated with 1% sodium borate was first developed in a solvent system consisting of chloroform/methanol (98/2, v/v). After air drying, the plate was then developed in a solvent system containing chloroform/methanol/water (70/30/4, v/v/v). The levels of glucosylceramide were detected by charring with 8% cupric sulfate in 8% phosphoric acid, and quantified by densitometric scanning using ImageJ, NIH Image. Image data was analyzed, and the IC50 of each inhibitor was calculated using GraphPad Prism (version 5.03).

[2] = system: MDR1-MDCKII cells; assay: GCS inhibition (GlcCer production) in MDCKII cells stably expressing human MDR1; type: cell-based, canine; conditions: for IC50: Canis lupus familiaris
Description: Parental (WT-)MDCKII cells and MDCKII cells retrovirally transduced with human MDR-1 cDNA were obtained from the Netherlands Cancer Institute. Both cell lines were routinely maintained in medium consisting of Opti-MEM/F 12 (1:1), 5% FBS, 100 U/mL of penicillin, 100 μg/mL streptomycin and […] L-glutamine. MDCKII cells were newly thawed from frozen ampules every two months.
as §1, with “After 24 hours, the medium was replaced with fresh serum-free Opti-F12 medium, and cells were exposed to candidate GCS inhibitors at concentrations of 0, 1, 3, 10, 30, 100 and 300 nM for 24 hours.” left out
as §2, with “Image.” for “Image. Image data was analyzed, and the IC50 of each inhibitor was calculated using GraphPad Prism (version 5.03).”

[3] = biological target: T1, MDR1 (Homo sapiens, UniProt P08183); assay: [3H]Vinblastine transport in MDR1-MDCKII cells; type: cell-based; conditions: for [3H]vinblastine uptake into MDR1-MDCKII cells: 1-100 μM, 2 h, relative to vehicle
T1 construct: host or cells: MDCKII (canine kidney) cells retrovirally transduced with human MDR-1 cDNA
T1 sequence (P08183 whole entry): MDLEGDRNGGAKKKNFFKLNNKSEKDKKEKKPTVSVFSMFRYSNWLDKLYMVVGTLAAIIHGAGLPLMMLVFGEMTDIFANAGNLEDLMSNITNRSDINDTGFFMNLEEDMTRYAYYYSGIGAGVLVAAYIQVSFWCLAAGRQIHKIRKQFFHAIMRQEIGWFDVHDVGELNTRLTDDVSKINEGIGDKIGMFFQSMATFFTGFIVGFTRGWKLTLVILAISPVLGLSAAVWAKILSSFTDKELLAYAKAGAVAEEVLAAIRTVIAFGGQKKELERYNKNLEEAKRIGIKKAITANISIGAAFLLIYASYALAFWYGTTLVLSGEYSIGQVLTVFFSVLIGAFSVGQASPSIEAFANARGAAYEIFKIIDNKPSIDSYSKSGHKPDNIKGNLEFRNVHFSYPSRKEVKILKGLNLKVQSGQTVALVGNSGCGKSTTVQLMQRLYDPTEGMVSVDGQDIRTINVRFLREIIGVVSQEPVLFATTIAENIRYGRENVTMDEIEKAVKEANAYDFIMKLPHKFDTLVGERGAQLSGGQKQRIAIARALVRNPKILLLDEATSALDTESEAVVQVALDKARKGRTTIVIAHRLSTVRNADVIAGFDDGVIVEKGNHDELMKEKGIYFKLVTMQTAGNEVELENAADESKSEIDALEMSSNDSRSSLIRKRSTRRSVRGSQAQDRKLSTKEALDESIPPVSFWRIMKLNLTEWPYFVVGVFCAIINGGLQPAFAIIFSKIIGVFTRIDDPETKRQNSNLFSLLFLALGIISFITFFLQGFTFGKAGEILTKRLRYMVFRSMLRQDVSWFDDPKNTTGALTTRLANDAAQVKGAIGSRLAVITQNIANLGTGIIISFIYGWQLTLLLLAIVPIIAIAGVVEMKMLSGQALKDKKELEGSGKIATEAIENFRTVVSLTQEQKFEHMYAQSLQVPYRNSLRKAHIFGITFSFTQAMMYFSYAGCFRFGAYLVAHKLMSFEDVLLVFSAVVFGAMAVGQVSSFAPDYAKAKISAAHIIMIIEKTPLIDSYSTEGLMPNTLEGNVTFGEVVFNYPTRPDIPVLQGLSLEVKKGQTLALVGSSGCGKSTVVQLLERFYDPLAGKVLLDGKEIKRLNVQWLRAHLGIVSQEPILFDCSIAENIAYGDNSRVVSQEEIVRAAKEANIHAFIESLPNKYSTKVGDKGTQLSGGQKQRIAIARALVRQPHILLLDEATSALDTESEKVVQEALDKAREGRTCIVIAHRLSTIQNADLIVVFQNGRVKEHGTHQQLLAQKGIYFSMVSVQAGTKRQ
Description: MDR1- and WT-MDCKII cells were grown to confluence on Transwell filters (12 well plates) in DMEM+10% FBS. […] Uptake was measured over 2 hours at 37° C. At that time, uptake was stopped by washing each side of the membrane 3× with ice-cold PBS. Vinblastine uptake into the cells, after correction for any remaining adherent extracellular contamination, was calculated as described previously (11). To investigate the effect of experimental drugs on MDR-mediated transport, those compounds were added to the apical chamber (1-100 μM) during vinblastine uptake and the uptake results expressed as a % of that with vehicle alone.

[4] = inhibition of GlcCer production in whole wild-type MDCKII cells, read-out: WT-MDCK IC50

Compound	IC50 ([1]; WT-MDCKII cells, read-out: IC50 for reduction in GlcCer levels, WT cells) [nM]	IC50 [1, 4] [nM]	potency in whole cells versus broken cells ([1]; broken cell IC50 versus whole WT-MDCKII IC50) [fold]	IC50 ([2]; MDR1-MDCKII cells, 24 h, read-out: IC50 for reduction in GlcCer levels, MDR1 expressing cells) [nM]	MDR/WT ([2]; ratio of MDR1-MDCKII IC50 divided by WT-MDCKII IC50)	[3H]vinblastine uptake into MDR1-MDCKII cells [3]	IC50 ([2]; inhibition of GlcCer production in MDCKII cells stably expressing human MDR1, 24 h, read-out: MDR-MDCK IC50) [nM]	interaction with / recognition by MDR1 ([3]; assessed by GCS IC50 shift and vinblastine uptake assays)
CCCCCCCC(=O)N[C@H](CN1CCCC1)[C@H](O)c1ccc2c(c1)OCCO2 [Compound 3a, N-((1R,2R)-1-(2,3-dihydrobenzo-[b][1,4]dioxin-6-yl)-1-hydroxy-3-(pyrrolidin-1-yl)propan-2-yl)octanamide, reference compound]	13.7	13.7	~10	31.7	2.3	dose-dependent increase	–	–
O=C(CC1Cc2ccccc2C1)N[C@H](CN1CCCC1)[C@H](O)c1ccc2c(c1)OCCO2 [Compound 3h, 2-(2,3-dihydro-1H-inden-2-yl)-N-((1R,2R)-1-(2,3-dihydrobenzo[b][1,4]dioxin-6-yl)-1-hydroxy-3-(pyrrolidin-1-yl)propan-2-yl)acetamide]	–	15.3	–	–	–	no significant dose dependent change	24.3	little to no apparent recognition by MDR1; also recorded: least interaction with MDR
